Tests used:
[1] = species: Rattus norvegicus; experiment: DrugMatrix - Regimen: Daily Repeat; type: toxicity, organism-based, Sprague-Dawley; set-up: regimen Daily Repeat, gender Male, age 6-8 weeks; details: in vivo, po, […], route oral GAVAGE, time 14 day, vehicle 100 % WATER
[2] = species: Rattus norvegicus; type: toxicity, organism-based, Sprague-Dawley; details: in vivo, po, 24 h, route oral GAVAGE, time 1 day, vehicle 100 % WATER
Description: DrugMatrix - Regimen: Single

[3] = 0 mg/kg, tissue Blood, dose level Control
[4] = 0 mg/kg, tissue Plasma, dose level Control
[5] = tissue Blood, dose 2.5 mg/Kg, dose level High
[6] = tissue Plasma, dose 2.5 mg/Kg, dose level High
[7] = 0 mg/kg, vehicle control, tissue Blood, dose level Control
[8] = 0 mg/kg, vehicle control, tissue Plasma, dose level Control
[9] = […], tissue Blood, dose 2.5 mg/Kg, dose level High
[10] = […], tissue Plasma, dose 2.5 mg/Kg, dose level High

In the case of MERCURIC CHLORIDE, the “ABSOLUTE BASOPHIL” value [1, 3] is reported as 0 CELLS/uL, the “ABSOLUTE EOSINOPHIL” value [1, 3] is reported as 117.17 CELLS/uL and the “ABSOLUTE MONOCYTE” value [1, 3] is reported as 419 CELLS/uL. The “ABSOLUTE SEGMENTED NEUTROPHIL” value [1, 3] was 2139.67 CELLS/uL, the BASOPHIL [1, 3] was 0% and the EOSINOPHIL [1, 3] was 0.67%. The “ERYTHROCYTE COUNT” value [1, 3] was 6.61 x10E6/uL, the HEMATOCRIT [1, 3] was 37.58% and the HEMOGLOBIN [1, 3] was 13.8 G/DL. For the same sequence, the “LEUKOCYTE COUNT” value [1, 3] was 15.45 x10E3/uL, the LYMPHOCYTE [1, 3] was 83% and the “MEAN CORPUSCULAR HEMOGLOBIN” value [1, 3] was 20.87 pg. For the same sequence, the “MEAN CORPUSCULAR HEMOGLOBIN CONCENTRATION” value [1, 3] was 36.72 G/DL, the “MEAN CORPUSCULAR VOLUME” value [1, 3] was 56.85 fL and the MONOCYTE [1, 3] was 2.67%. For the same sequence, the NEUTROPHIL [1, 3] was 13.67%, the “NUCLEATED RED BLOOD CELLS” value [1, 3] was 0 /100WBC and the “PLATELET COUNT” value [1, 3] was 1108.33 x10E3/uL. For the same sequence, the “ALANINE AMINOTRANSFERASE” value [1, 4] was 56.83 u/L, the “ALKALINE PHOSPHATASE” value [1, 4] was 354.33 u/L and the “ASPARTATE AMINOTRANSFERASE” value [1, 4] was 93.33 u/L. The “BLOOD UREA NITROGEN” value [1, 4] was 16.67 mg/dL, the “CARBON DIOXIDE” value [1, 4] was 27.83 mmol/L and the CHOLESTEROL [1, 4] was 62.33 mg/dL. The CREATININE [1, 4] was 0.2 mg/dL, the GLUCOSE [1, 4] was 137 mg/dL and the “LACTATE DEHYDROGENASE” value [1, 4] was 407 u/L. The LIPASE [1, 4] was 10.83 u/L, the PHOSPHORUS [1, 4] was 11.45 mg/dL and the POTASSIUM [1, 4] was 6.51 MEQ/L. For the same sequence, the SODIUM [1, 4] was 145.57 MEQ/L, the “TOTAL BILIRUBIN” value [1, 4] was 0.2 mg/dL and the “TOTAL PROTEIN” value [1, 4] was 6.3 G/DL. The “ABSOLUTE BASOPHIL” value [1, 5] was 0 CELLS/uL, the “ABSOLUTE EOSINOPHIL” value [1, 5] was 269 CELLS/uL and the “ABSOLUTE LYMPHOCYTE” value [1, 5] was 14982 CELLS/uL. The “ABSOLUTE MONOCYTE” value [1, 5] was 560.2 CELLS/uL, the “ABSOLUTE SEGMENTED NEUTROPHIL” value [1, 5] was 2068.8 CELLS/uL and the BASOPHIL [1, 5] was 0%. For the same sequence, the EOSINOPHIL [1, 5] was 1.6%, the “ERYTHROCYTE COUNT” value [1, 5] was 6.64 x10E6/uL and the HEMATOCRIT [1, 5] was 37.88%. The “LEUKOCYTE COUNT” value [1, 5] was 17.88 x10E3/uL, the LYMPHOCYTE [1, 5] was 83.6% and the “MEAN CORPUSCULAR HEMOGLOBIN” value [1, 5] was 20.94 pg. The “MEAN CORPUSCULAR HEMOGLOBIN CONCENTRATION” value [1, 5] was 36.7 G/DL, the “MEAN CORPUSCULAR VOLUME” value [1, 5] was 57.06 fL and the MONOCYTE [1, 5] was 3.2%. For the same sequence, the NEUTROPHIL [1, 5] was 11.6%, the “NUCLEATED RED BLOOD CELLS” value [1, 5] was 0 /100WBC and the “PLATELET COUNT” value [1, 5] was 1034.6 x10E3/uL. The “ALANINE AMINOTRANSFERASE” value [1, 6] was 59.6 u/L, the “ALKALINE PHOSPHATASE” value [1, 6] was 375 u/L and the “ASPARTATE AMINOTRANSFERASE” value [1, 6] was 95.2 u/L. The “BLOOD UREA NITROGEN” value [1, 6] was 17 mg/dL, the “CARBON DIOXIDE” value [1, 6] was 23.4 mmol/L and the CHOLESTEROL [1, 6] was 68 mg/dL. The CREATININE [1, 6] was 0.22 mg/dL, the GLUCOSE [1, 6] was 151.4 mg/dL and the “LACTATE DEHYDROGENASE” value [1, 6] was 417.8 u/L. It also gave an LIPASE [1, 6] of 10.2 u/L, a PHOSPHORUS [1, 6] of 11.36 mg/dL and a POTASSIUM [1, 6] of 6.37 MEQ/L. The SODIUM [1, 6] was 147.12 MEQ/L, the “TOTAL BILIRUBIN” value [1, 6] was 0.18 mg/dL and the “TOTAL PROTEIN” value [1, 6] was 6.74 G/DL. The “URIC ACID” value [1, 6] was 2.42 mg/dL, the “ABSOLUTE EOSINOPHIL” value [2, 7] was 91.83 CELLS/uL and the “ABSOLUTE LYMPHOCYTE” value [2, 7] was 13862.33 CELLS/uL. The “ABSOLUTE MONOCYTE” value [2, 7] was 437.83 CELLS/uL, the “ABSOLUTE SEGMENTED NEUTROPHIL” value [2, 7] was 1358 CELLS/uL and the BASOPHIL [2, 7] was 0%. For the same sequence, the EOSINOPHIL [2, 7] was 0.5%, the “ERYTHROCYTE COUNT” value [2, 7] was 5.12 x10E6/uL and the HEMATOCRIT [2, 7] was 31.77%. The HEMOGLOBIN [2, 7] was 11.8 G/DL, the “LEUKOCYTE COUNT” value [2, 7] was 15.75 x10E3/uL and the “MEAN CORPUSCULAR HEMOGLOBIN” value [2, 7] was 23.07 pg. For the same sequence, the “MEAN CORPUSCULAR HEMOGLOBIN CONCENTRATION” value [2, 7] was 37.17 G/DL, the MONOCYTE [2, 7] was 2.67% and the NEUTROPHIL [2, 7] was 8.5%. The “NUCLEATED RED BLOOD CELLS” value [2, 7] was 0 /100WBC, the “PLATELET COUNT” value [2, 7] was 1113.83 x10E3/uL and the “ALANINE AMINOTRANSFERASE” value [2, 8] was 45.5 u/L. For the same sequence, the “ALKALINE PHOSPHATASE” value [2, 8] was 343.83 u/L, the “ASPARTATE AMINOTRANSFERASE” value [2, 8] was 70.67 u/L and the “BLOOD UREA NITROGEN” value [2, 8] was 13 mg/dL. The “CARBON DIOXIDE” value [2, 8] was 33 mmol/L, the CHLORIDE [2, 8] was 100.33 MEQ/L and the CHOLESTEROL [2, 8] was 76.67 mg/dL. The CREATININE [2, 8] was 0.12 mg/dL, the “LACTATE DEHYDROGENASE” value [2, 8] was 116.67 u/L and the LIPASE [2, 8] was 8 u/L. For the same sequence, the POTASSIUM [2, 8] was 6.33 MEQ/L, the “TOTAL BILIRUBIN” value [2, 8] was 0.18 mg/dL and the “TOTAL PROTEIN” value [2, 8] was 5.77 G/DL. The “ABSOLUTE EOSINOPHIL” value [2, 9] was 210.67 CELLS/uL, the “ABSOLUTE LYMPHOCYTE” value [2, 9] was 10744.33 CELLS/uL and the “ABSOLUTE MONOCYTE” value [2, 9] was 466.33 CELLS/uL. The “ABSOLUTE SEGMENTED NEUTROPHIL” value [2, 9] was 1512 CELLS/uL, the BASOPHIL [2, 9] was 0% and the “ERYTHROCYTE COUNT” value [2, 9] was 5.65 x10E6/uL. For the same sequence, the HEMATOCRIT [2, 9] was 34.1%, the HEMOGLOBIN [2, 9] was 12.63 G/DL and the “LEUKOCYTE COUNT” value [2, 9] was 12.93 x10E3/uL. For the same sequence, the LYMPHOCYTE [2, 9] was 84.67%, the “MEAN CORPUSCULAR HEMOGLOBIN” value [2, 9] was 22.43 pg and the “MEAN CORPUSCULAR HEMOGLOBIN CONCENTRATION” value [2, 9] was 37.1 G/DL. For the same sequence, the “MEAN CORPUSCULAR VOLUME” value [2, 9] was 60.37 fL, the MONOCYTE [2, 9] was 3.33% and the NEUTROPHIL [2, 9] was 10.67%. The “NUCLEATED RED BLOOD CELLS” value [2, 9] was 0 /100WBC, the “PLATELET COUNT” value [2, 9] was 1117 x10E3/uL and the “ALANINE AMINOTRANSFERASE” value [2, 10] was 52.67 u/L. For the same sequence, the ALBUMIN [2, 10] was 4.3 G/DL, the “ALKALINE PHOSPHATASE” value [2, 10] was 366 u/L and the “ASPARTATE AMINOTRANSFERASE” value [2, 10] was 77.67 u/L. The “BLOOD UREA NITROGEN” value [2, 10] was 13 mg/dL, the “CARBON DIOXIDE” value [2, 10] was 26 mmol/L and the CHOLESTEROL [2, 10] was 82.67 mg/dL. For the same sequence, the CREATININE [2, 10] was 0.16 mg/dL, the “LACTATE DEHYDROGENASE” value [2, 10] was 175 u/L and the LIPASE [2, 10] was 8 u/L. For the same sequence, the PHOSPHORUS [2, 10] was 12.07 mg/dL, the POTASSIUM [2, 10] was 6.17 MEQ/L and the “TOTAL BILIRUBIN” value [2, 10] was 0.17 mg/dL. The “TOTAL PROTEIN” value [2, 10] was 6.23 G/DL and the “URIC ACID” value [2, 10] was 1.7 mg/dL.

Reference: ChEMBL document CHEMBL3885881, “DrugMatrix”
